“Also recorded” adds a separate entry of the source.
Key:
[1] = test system: TCR→p-ERK/p-AKT in T cells; assay: in vitro Keytruda effect on TCR signaling in PBMC of breast cancer patients and healthy donors; format: cell-based, human
Experimental: (§1) In this Example, samples of peripheral blood mononuclear cells (PBMCs) from breast cancer patients and from healthy donors were analyzed for IMR expression and by single cell network profiling, both modulated and unmodulated. Samples were taken before and after treatment in the breast cancer patients. IMR expression was profiled and correlated with immune signaling; differences in immune signaling by SCNP in pre- and post-treatment samples was investigated; the in vitro effects of immune checkpoint inhibitors on signaling in pre- and post-treatment samples was investigated; and the in vitro effects of Fresolimumab on TGFb modulated signaling in pre-treatment samples was profiled.
PBMC samples were collected from 7 healthy donors and 15 breast cancer patients enrolled in a clinical study NCT01401062, evaluating Fresolimumab (anti-TGF □) at 1 or 10 mg/kg IV in combination with radiotherapy (RT). Samples were cryopreserved then prepped and analyzed. Breast cancer donor samples were pre- and post-treatment. Basal expression of immunomodulatory receptors (IMRs) and short term signaling in response to modulation were profiled. […]
In addition, T cell receptor (TCR) signaling was studied using SCNP. The TCR was stimulated, as described elsewhere herein, and downstream readouts, in particular, p-ERK and p-AKT, p-PLCg2, p-CD3z, p-s6, and IkB were measured.

[2] = test system: immune signaling pathways in PBMC subsets; assay: SCNP of PBMC from melanoma patients pre- and post-ipilimumab treatment; format: in vivo, human; conditions: for IL-15→p-STAT5 signaling in post-treatment samples: CD4− T cells, vs healthy and untreated donor samples
Experimental: Methods: 3 healthy and 13 melanoma patient cryopreserved samples, including 7 collected pre-treatment, and 6 collected post-treatment, were analyzed by SCNP. […] Cells were assessed for viability, cell subset frequencies and signaling in response to different modulators. A node is defined as combination of modulator and intracellular readout (e.g. IL-6→p-STAT3). Cytokine and TCR- or Fc[…]R-induced activation of STAT1, 3, 5, CD3 □ and Erk was evaluated in multiple immune cell populations and comparisons made based on disease, treatment time point and clinical responses.

[3] = test system: CTLA-4 interaction with CD80/86 in T cells; assay: in vitro T cell activation on αCD3-coated plate with ipilimumab, 48 hr; format: cell-based; conditions: PBMCs on αCD3-coated plate, vs isotype control
Experimental: In this example, PBMCs were added to a αCD3-coated plate to induce T cell activation, then ipilimumab was added to block CTLA-4 interaction with CD80/86. Isotype control was added to a reference well. The cells were incubated at 37° C. for 48 hr, then fixed, permeabilized, stained, and data acquired as described in the Examples above. Cells were gated by CD3, CD4, and CD8, and the readouts were IL-2, TNF-α, Cyclin A2, and CTLA-4. Ipilimumab augmented CTLA-4 upregulation, cytokine production, and proliferation.

[4] = test system: metastatic melanoma; conditions: ipilimumab alone compared to gp100 vaccine alone; previously treated metastatic melanoma; p=0.003; cited from earlier work
[5] = test system: p-STAT1, p-STAT3, p-STAT5 in whole blood cell subsets; assay: SCNP of cytokine-induced JAK/STAT signaling in whole blood of healthy donors; format: cell-based, human
Experimental: Method: Whole blood from 11 healthy donors (20-65 yrs, 7 males, 4 females, 8 Caucasians, 2 Hispanics, 1 East Asian) was stimulated at 37° C. in 96-well plates with a low, medium, and high dose of GM-CSF, IFN-α, IL-27 and IL-6, each added separately, as described in Example 5. For each dose, a stimulation time course was run with 6 time points between 3 and 45 minutes. […] The SCNP assay was performed using a fluorophore-labeled antibody cocktail to simultaneously measure signaling in six distinct cell populations, including: neutrophils, CD20+ B cells, CD3+CD4+ T cells, CD3+CD4− T cells (CD8 enriched), CD3−CD20− lymphocytes (NK cell enriched), and CD14+ monocytes. The median fluorescent intensity of phospho (p)-STAT1(Y701), p-STAT3(Y705), and p-STAT5(Y694) were measured in each defined cell population for each experimental condition.
Kinetic response to varying concentrations of modulators was investigated in normal samples (i.e. samples from persons who have no diagnosis of disease). 11 normal samples were donated with informed consent by Nodality Inc. employees and processed at Nodality Inc. in South San Francisco, Calif. The samples were treated with 4 different modulators (GM-CSF, IL-27, IFNa and IL-6) at 4 different concentrations of the modulator and activation levels of pStat1, pStat3 and pStat5 were measured at different time points. Activation levels were measured at 3, 5, 10, 15, 30 and 45 minutes using flow cytometry-based single cell network profiling. The concentrations of the stimulators are tabulated below:
Activation levels of different cell surface markers were also profiled using single cell network profiling and used in conjunction with gating to segregate the cells into discrete cell populations. In the gating analysis, SSC-A and FSC-A were first used to segregate lymphocytes from non-lymphocytes. CD14 and CD4 were then used to segregate the non-lymphocytes into populations of neutrophils and CD14+ cells (monocytes). CD3 and CD20 were then used to segregate the lymphocytes into populations of CD20+(B Cells), CD3+(T Cells) and CD20-CD3-cells. CD4 was used to segregate the CD3+ T cells into populations of CD3+CD4- and CD3+CD4+ T cells.

[6] = test system: p-Stat1, p-Stat3, p-Stat4, p-Stat5, p-Stat6, p-p38 in PBMC subsets; assay: SCNP of IFN-α signaling in PBMC from healthy donors; format: cell-based, human
Experimental: Methods: IFN-α-mediated signaling responses were measured by SCNP in PBMC samples from 12 healthy donors. PBMCs were processed for flow cytometry by fixation and permeabilization followed by incubation with fluorochrome-conjugated antibodies that recognize extracellular lineage markers and intracellular signaling molecules. The levels of several phospho-proteins (p-Stat1, p-Stat3, p-Stat4, p-Stat5, p-Stat6, and p-p38) were measured in multiple cell populations (CD14+ monocytes, CD20+ B cells, CD4+CD3+ T cells, and CD4−CD3+ T cells) at 15 minutes, 1, 2 and 4 hours post IFN-α exposure as described in Example 6.

[7] = test system: TGFb modulated signaling; assay: in vitro Fresolimumab on TGFb modulated signaling in breast cancer samples; format: cell-based, human
Experimental: as §1

[8] = test system: breast cancer patients; assay: clinical study NCT01401062, Fresolimumab with radiotherapy in breast cancer: PBMC IMR expression, signaling, response; format: in vivo, human
Experimental: PBMC samples were collected from 7 healthy donors and 15 breast cancer patients enrolled in a clinical study NCT01401062, evaluating Fresolimumab (anti-TGF □) at 1 or 10 mg/kg IV in combination with radiotherapy (RT). Samples were cryopreserved then prepped and analyzed. Breast cancer donor samples were pre- and post-treatment. Basal expression of immunomodulatory receptors (IMRs) and short term signaling in response to modulation were profiled. Signaling following exposure to in vitro chemotherapeutic agents was also examined. Response to therapy in this trial was poor and therefore associations with clinical reponse was observational only.
Analysis of IMR expression and SCNP (modulated and unmodulated) was performed as detailed in previous Examples and in the specification.

[9] = IL-6 stimulation, CD4+ T cells and monocytes, whole blood

In the case of “Keytruda: checkpoint blockade agent that reduces communication through the PD-1 pathway”, the “effect on TCR signaling (p-ERK and p-AKT readouts)” value ([1]; PD-1 negative (low PD-1 expression)) is reported as “no effect” and the “effect on TCR signaling (p-ERK and p-AKT readouts)” value ([1]; PD-1 positive (high expression) T cells) is reported as “clear trend toward an increase in signaling; also recorded: increased TCR→AKT and p-ERK”.
In the case of “ipilimumab: fully human monoclonal antibody that blocks cytotoxic T-lymphocyte-associated antigen 4 (CTLA-4)-mediated T-cell suppression”, the “IL-15→p-STAT5 signaling in post-treatment samples” value [2] is reported as “diminished”, the “IL-15→p-STAT5 signaling in post-treatment samples” value ([2]; listed as Ipilimumab) is reported as “reduced IL-15→p-STAT5 signaling” and the “TCR→p-Erk, TCR→p-CD3z signaling in post-treatment samples” value ([2]; CD45RA+ but not CD45RA− CD4+ and CD4− subsets, vs healthy donors and pre-treatment melanoma samples) is reported as “diminished”. The CTLA-4 upregulation [3] was “augmented”, the “cytokine production (IL-2, TNF-α)” value [3] was “augmented” and the “proliferation (Cyclin A2)” value [3] was “augmented”. For the same substance, the “hazard ratio for death” value [4] was 0.66.
For IL-6: cytokine modulator, the “time at which signal resolution fell to baseline levels” value ([5]; IL-6, monocytes (CD4+ T cells sustained)) was 45 min, the “time of peak p-STAT1 and p-STAT5” value [5, 9] was 10 to 15 min and the “time of peak p-STAT3 levels” value [5, 9] was 3 min. The “IL-6 induced activation in neutrophils” value ([5]; compared to CD4+ T cells and monocytes) was “very low” and the “cell subsets showing induced signaling” value ([5]; whole blood, six cell populations) was “only observed in CD4+ T cells and monocytes”.
With IFN-α the “time of peak activation of all 3 STAT proteins” value ([5]; IFN-α stimulation, all cell subsets) was 10 min, the “signaling resolution in monocytes” value ([5]; IFN-α, signal sustained in all other subsets) was “almost complete at 45 minutes” and the “activation of p-Stat4” value ([6]; PBMC subsets) was “detected in T cell subsets (both CD4+ and CD4− T cells), but not in monocytes or B cells”. The “time of peak response for activation of p-Stat4, p-Stat6, p-p38” value ([6]; majority of cell types, PBMC) was 1 h and the “time of peak response for activation of p-Stat1, p-Stat3, p-Stat5” value ([6]; most cell types, PBMC) was 15 min.
In the case of “Fresolimumab: anti-TGF, a TGFb inhibitor”, the “in vitro Fresolimumab activity” value [7] is reported as “weak”, the response to therapy ([8]; Fresolimumab in combination with radiotherapy) is reported as “poor” and the “PD-L1 expression in NK cells over the course of treatment” value ([8]; breast cancer patients' PBMC) is reported as “trend was observed toward increasing PD-L1 expression”. The “TIM-3 expression in monocytes with treatment” value ([8]; breast cancer patients' PBMC) was “decrease in TIM-3 expression”, the “IMR expression patterns by dose” value ([8]; higher dose (1 or 10 mg/kg IV) of Fresolimumab, patient PBMC) was “trend toward higher IMR expression patterns” and the “TCR mediated signaling by dose” value ([8]; higher dose of Fresolimumab, patient PBMC) was “trend toward reduced TCR mediated signaling”.
With GM-CSF: cytokine modulator the GM-CSF→p-STAT5 signal termination ([5]; monocytes, neutrophils maintained persistent p-STAT5) was “efficient signal termination in monocytes”.

— patent US20170370933A1, “METHODS AND COMPOSITIONS FOR IMMUNOMODULATION” (Nodality, Inc., priority 2013, published 2017)
